Experiment: Stability of the product during purification (sensitivity to methanol)
Format: physicochemical
Conditions: particularly at a pH below 6

CC=C(C)C=C(C)C1C(C)=CC2(C)CC(C)CCC2C1C(=O)C1=CC(O)(Cc2ccccc2)C(=O)N1 (stereo not shown) [Structural Formula I]
instability of the product / sensitivity to methanol: sensitivity to methanol particularly at a pH below 6

Reference: patent publication US5352800A, “Process for the production of a novel endothelin antagonist” (Merck & Co., Inc., priority 1993, dated 1994)
